Entries after “also recorded” stand apart in the source; their conditions may differ.
Legend:
BY4743 yeast cells = type: cell-based
Arabidopsis seedlings = system: Arabidopsis seedlings; design: species or system Arabidopsis thaliana; details: in vivo
[1] = system: mitochondrial membrane potential (ψmito) in BY4743 yeast cells; type: cell-based
yeast cells = details: cited from earlier work

In the case of `COc1ccc(C[C@H]2NC[C@H](O)[C@H]2OC(C)=O)cc1` [anisomycin], the “shift in growth sensitivity relative to cells carrying the vector alone” value (BY4743 yeast cells) is reported as “no significant shift in growth sensitivity”.
For `C[C@@H]1C[C@@H]([C@H](O)CC2CC(=O)NC(=O)C2)C(=O)[C@@H](C)C1` [cycloheximide], the “shift in growth sensitivity relative to cells carrying the vector alone” value (BY4743 yeast cells) was “no significant shift in growth sensitivity”.
With `O=C(N[C@H](CO)[C@H](O)c1ccc([N+](=O)[O-])cc1)C(Cl)Cl` [chloramphenicol] the “shift in growth sensitivity relative to cells carrying the vector alone” value (BY4743 yeast cells) was “no significant shift in growth sensitivity”.
For `C/C=C\C(=O)O[C@@H]1C[C@H]2O[C@@H]3C=C(C)C(=O)C[C@]3(C)[C@]1(C)[C@]21CO1` [Tcin, trichothecin], the “effect on root growth of the wild type” value (Arabidopsis seedlings) was “severely limited root growth; also recorded: severely restricts root initiation and elongation”, the “growth against Tcin” value (BY4743 yeast cells) was “increasingly resistant to Tcin” and the “growth against Tcin relative to cells carrying the vector alone” value (BY4743 yeast cells) was “more sensitive to Tcin”. The “growth against Tcin relative to cells containing the vector alone” value (BY4743 yeast cells) was “provided resistance”, the “change of ψmito with increasing concentrations of Tcin” value [1] was “did not change much” and the IC50 (yeast cells) was 2.5 µM.
